On the set-up of series [1]: method as in PMID 10546544. Particulars: Rose Bengal as the standard; cited from earlier work.
The nature of series [2]: Photophysical characterization (absorption, fluorescence, phosphorescence, lifetime). The class given is physicochemical. On the procedure: Section S6. Photophysical Characterizations
S6.1 Absorption, fluorescence, and phosphorescence spectra
Fluorescein and its derivatives were dissolved in DMSO to obtain 1 mM stock solutions.
The stock solutions were diluted with deionized water to 10 μM.
Supplementary Figure 20. The absorption (black), fluorescence (blue), and phosphorescence (red, slit 25 nm) spectra of FL.
Supplementary Figure 21. The absorption (black), fluorescence (blue), and phosphorescence (red, slit 25 nm) spectra of DCF.
S6.2 Fluorescence lifetime
Fluorescence decay samples was recorded with Fluorolog-3 (Horiba). The solution of samples were prepared to be 5 μM in 0.5% (v/v) DMSO, and diluted with 0.1M NaOH.
S6.5 Photophysical properties of the halogenated-fluorescein derivatives
Supplementary Table 4. Photophysical Properties of Halogenated-fluorescein derivatives. […]
a Measured in 2% DMSO; b Measured in 2% DMSO citric acid -disodium hydrogen phosphate buffer; c Measured in a mixed solvent of D 2O and CH3CN (VD2O:
VCH3CN = 1: 15); d The solution of samples were prepared to be 5 μM in 0.5% (v/v) DMSO, and diluted with 0.1 M NaOH.

Series [3] can be described thus: Relative singlet oxygen quantum yield (1O2 phosphorescence, Rose Bengal standard). The format is physicochemical. Also noted: key: relative to Rose Bengal standard (ΦΔ = 0.75). On the procedure: To permit the open-form structure of all fluorescein derivatives, all the measurements were carried out in pH = 10 media.
The singlet oxygen quantum yields (ΦΔ) of all fluorescein-based PSs were evaluated with Rose Bengal as the standard (ΦΔ = 0.75):1 ΦΔ=AsAbsorption/As(Emission)×ARB(Emission)/ARB(Absorption)×0.75 Here, the area of absorption (RB and PSs) was collected with an integrating sphere (λex = 510 nm), while the area of emission was obtained from the characterized 1270 nm ^1O2 phosphorescence emission. For collection of such emission, CH3CN and D2O mixed solvent (v (D2O): v (CH3CN) = 1:15, pH = 9.0, adjusted with 0.001 M NaOH) was used, since H2O can severely quench the singlet oxygen luminescence. For all the measurements, the concentrations of the PSs were set at 10 μM.
S6.3 Relative singlet oxygen quantum yield
The singlet O2 quantum yield of photosensitizers were measured by Fluolog-3 spectrofluorometer with an integration sphere (IS80, Labsphere) and NIR detector (Hamamatsu H-10330) in this work.
For better collection of the characterized singlet oxygen phosphorescence emission (1275 nm), CH3CN and D2O mixed solvent was used (H2O can severely quench the singlet oxygen luminescence). The 10 mM stock solutions in CH3CN and D2O mixed solvent (VCH3CN:VD2O = 15:1) were first prepared. The stock solutions were diluted to 10 μM, and the final volume was 2 mL. In addition, the CH3CN and D2O mixed solvent as blank was also prepared.
1. Turn on the instrument and the start software, the light source is xenon lamp.
2. From the experiment menu, selected spectra, emission. The 1O2 emission phosphorescence spectra are first measured.
3. The parameters setting are listed: a. Excitation wavelength: 510 nm

The nature of series [4]: pH titration of halogenated fluorescein (pH0.5). The class given is physicochemical. On the procedure:
The pH0.5 values (the pH value when the open form reduce to the half of the maximum) of various fluorescein derivatives were determined experimentally through pH titration (Supplementary Figs. 6–16).
The pH of the solutions were adjusted through varying the ratios of citric acid and Na2HPO4 (pH 2.2–8.0), and further acidity was adjusted with concentrated HCl or 1 M NaOH. The absorption and fluorescence spectra of the resultant solutions were then collected.
Section S5. pH-dependent Properties of the Halogenated Fluoresceins.
S5.1 pH titration of halogenated fluorescein
Fluorescein derivatives (Supplementary Table 1) were dissolved in DMSO to obtain 1 mM stock solutions and then diluted with citric acid-Na2HPO4 buffer (100 mM) to 10
μM. The pH of the solutions were adjusted through varying the ratios of citric acid and Na2HPO4 (pH 2.2-8.0), and further acidity was adjusted with concentrated HCl or 1 M
NaOH. The absorption and fluorescence spectra of the resultant solutions were then

Consider `O=C(O)c1c(Cl)c(Cl)c(Cl)c(Cl)c1-c1c2cc(I)c(=O)c(I)c-2oc2c(I)c(O)c(I)cc12` [RB, Tetraiodo-tetrachloro-fluorescein], for which, in series [1], the “singlet oxygen quantum yield (ΦΔ) of the standard” value is on record as 0.75. Moreover, in series [2], the kdec came to 1e+11 s⁻¹, the knr came out at 9.97e+10 s⁻¹ and the krad turned out to be 3e+08 s⁻¹. In series [2] (5 μM in 0.5% (v/v) DMSO, diluted with 0.1 M NaOH), this molecule registered a ΦFL of 0.003. In series [2] (2% DMSO), this molecule showed a λAbs of 550 nm, a λPh of 732 nm and a λem of 570 nm. Further, the τfl in series [2] (fluorescence lifetime, 5 μM in 0.5% DMSO, 0.1 M NaOH) was found to be 0.01 ns. For the same molecule, in series [3] (mixed solvent of D2O and CH3CN (1:15) (Supplementary Table 4)), the “Singlet oxygen yield (ΦΔ)” value is reported as 0.75. The “singlet oxygen quantum yield (ΦΔ)” value in series [3] (pH = 10 media, relative, RB as the standard) stood at 0.75. For the same molecule, the pH0.5 in series [4] (2% DMSO citric acid-disodium hydrogen phosphate buffer (Supplementary Table 4)) is recorded as 3.99. In series [4] (pH value when the open form reduces to half of the maximum, pH titration, 10 μM, citric acid–Na2HPO4 buffer), this molecule had a pH0.5 of 3.99.
